Here are results for 13 molecules from ChEMBL document CHEMBL1142262, “New QSAR combined strategy for the design of A1 adenosine receptor agonists” (Bioorg Med Chem, 2008).

The structures appear in SMILES notation.

The first assay has as its target T1, Adenosine receptor A1 (Rattus norvegicus, UniProt P25099).
T1 sequence (P25099 whole entry): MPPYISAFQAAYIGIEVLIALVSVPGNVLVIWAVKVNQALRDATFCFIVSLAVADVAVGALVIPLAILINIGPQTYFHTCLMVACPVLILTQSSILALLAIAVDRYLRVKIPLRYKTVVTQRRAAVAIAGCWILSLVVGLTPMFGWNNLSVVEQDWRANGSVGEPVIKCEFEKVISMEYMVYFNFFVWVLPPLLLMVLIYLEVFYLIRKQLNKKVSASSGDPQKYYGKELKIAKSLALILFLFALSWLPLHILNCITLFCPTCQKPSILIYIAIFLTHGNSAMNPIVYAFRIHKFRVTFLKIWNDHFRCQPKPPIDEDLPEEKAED
As to the kind of experiment: Displacement of [3H]R-N6-phenylisopropyladenosine from adenosine A1 receptor in rat cerebral cortical membrane. It counts as cell membranes. As to conditions: read-out: -Log Ki (converted).
As for `OCC1CC=CC1n1cnc2c(NC3CCCC3)ncnc21` (racemic), the inhibition constant (Ki) is 333 µM.

Still in this assay, the particulars now being: read-out: Ki.
As for `OCC1CC=CC1n1cnc2c(NC3CCCC3)ncnc21` (racemic), the Ki was found to be 3 µM.

On to `OCC1CC=CC1n1cnc2c(NCc3ccccc3I)ncnc21` (racemic), for which the inhibition constant (Ki) amounted to 25.5 µM.

Take `OCC1CC=CC1n1cnc2c(NC3CC3)ncnc21` (racemic): the inhibition constant (Ki) was 32.3 µM.

The target of another assay is T2, Adenosine receptor A1 (Rattus norvegicus) (UniProt P25099).
T2 sequence (whole entry): T1 sequence (P25099 whole entry)
The assay can be described thus: Displacement of [3H]R-N6-phenylisopropyladenosine from adenosine A1 receptor in rat cerebral cortical membrane at 100 uM. It counts as cell membranes.
Conditions: not given
Take `CNC(=O)C1CC=CC1n1cnc2c(N)ncnc21` (racemic): the inhibition was 22%.

In turn, `CNC(=O)C1CC=CC1n1cnc2c(NC3CC3)ncnc21` (racemic) returned an inhibition of 50%.

On to `CNC(=O)C1CC=CC1n1cnc2c(NC3CCCC3)ncnc21` (racemic), for which the inhibition was under 10%.

Consider `CNC(=O)C1CC=CC1n1cnc2c(NCc3ccccc3)ncnc21` (racemic), for which the inhibition is under 10%.

`CNC(=O)C1CCCC1n1cnc2c(N)ncnc21` (racemic) showed an inhibition of 25%.

For the molecule `CNC(=O)C1CCCC1n1cnc2c(NC3CC3)ncnc21` (racemic), the inhibition was under 10%.

The molecule `CNC(=O)C1CCCC1n1cnc2c(NC3CCCC3)ncnc21` (racemic) showed an inhibition of 31%.

`CNC(=O)C1CCCC1n1cnc2c(NCc3ccccc3)ncnc21` (racemic) displayed an inhibition of 26%.

Turning to `CNC(=O)C1CCCC1n1cnc2c(NCc3ccccc3I)ncnc21` (racemic), the inhibition is under 10%.

For `NNc1ncnc2c1ncn2C1C=CCC1CO` (racemic), the inhibition amounted to 29%.
